In US8372420B2, “Compositions and methods for coating medical implants” (Angiotech International AG, priority 2002, dated 2013):

Tests used:
Format in all cases: cell-based
S. epidermidis C621 = test: MIC determination by microtitre broth dilution; details: S. epidermidis C621, wt, Gram+; Mueller Hinton broth, 37° C., 24 h
Experimental: (§1) A. MIC assay of various gram negative and positive bacteria MIC assays were conducted essentially as described by Amsterdam, D. 1996. Susceptibility testing of antimicrobials in liquid media, p. 52-111. In Loman, V., ed. Antibiotics in laboratory medicine, 4th ed. Williams and Wilkins, Baltimore, Md.

E. coli UB1005 C498 = test: MIC determination by microtitre broth dilution; details: for Minimum Inhibitory Concentrations: E. coli UB1005 C498, wt, Gram−, Mueller Hinton broth, 37° C., 24 h
Experimental: as §1

S. pyogenes C721 = test: MIC determination by microtitre broth dilution; details: S. pyogenes C721, wt, Gram+; Todd Hewitt broth, 37° C., 24 h
Experimental: as §1

S. aureus ATCC25923 C622 = test: MIC determination by microtitre broth dilution; details: S. aureus ATCC25923 C622, wt, Gram+; Mueller Hinton broth, 37° C., 24 h
Experimental: as §1

[1] = test system: P. aeruginosa PAE/K799 H187; test: MIC determination by microtitre broth dilution; details: for Minimum Inhibitory Concentrations: P. aeruginosa PAE/K799 H187, wt, Gram−, Mueller Hinton broth, 37° C., 24 h
Experimental: as §1

[2] = test system: K. pneumoniae ATCC13883 C238; test: MIC determination by microtitre broth dilution; details: for Minimum Inhibitory Concentrations: K. pneumoniae ATCC13883 C238, wt, Gram−, Mueller Hinton broth, 37° C., 24 h
Experimental: as §1

[3] = test system: organisms known to cause vascular access catheter-related infections; test: Antibacterial activity of anticancer agents

Compound: Sc1ncc2[nH]cnc2n1 [2-mercaptopurine]
- Minimum Inhibitory Concentrations (S. epidermidis C621): N
- Minimum Inhibitory Concentrations (E. coli UB1005 C498): N
- Minimum Inhibitory Concentrations (S. pyogenes C721): N
- Minimum Inhibitory Concentrations (S. aureus ATCC25923 C622): N
- Minimum Inhibitory Concentrations [1]: N
- Minimum Inhibitory Concentrations [2]: N
- antibacterial activity against the organisms known to cause vascular access catheter-related infections [3]: did not have antibacterial activity

Compound: O=c1[nH]cc(F)c(=O)[nH]1 [5-fluorouracil, 5-Fluorouracil]
- Minimum Inhibitory Concentrations (S. epidermidis C621): 10^−7 Molar
- activity against Escheridia coli (E. coli UB1005 C498): have activity
- Minimum Inhibitory Concentrations (E. coli UB1005 C498): 10^−6 Molar
- Minimum Inhibitory Concentrations (S. pyogenes C721): 10^−4 Molar
- Minimum Inhibitory Concentrations (S. aureus ATCC25923 C622): 10^−7 Molar
- activity against Pseudomonas aeruginosa [1]: have activity
- Minimum Inhibitory Concentrations [1]: 10^−5 Molar
- Minimum Inhibitory Concentrations [2]: 10^−6 Molar

Compound: Sc1ncnc2nc[nH]c12 [6-mercaptopurine]
- Minimum Inhibitory Concentrations (S. epidermidis C621): N
- Minimum Inhibitory Concentrations (E. coli UB1005 C498): N
- Minimum Inhibitory Concentrations (S. pyogenes C721): N
- Minimum Inhibitory Concentrations (S. aureus ATCC25923 C622): N
- Minimum Inhibitory Concentrations [1]: N
- Minimum Inhibitory Concentrations [2]: N
- antibacterial activity against the organisms known to cause vascular access catheter-related infections [3]: did not have antibacterial activity

Compound: Nc1ccn([C@@H]2O[C@H](CO)[C@@H](O)[C@@H]2O)c(=O)n1 [Cytarabine]
- Minimum Inhibitory Concentrations (S. epidermidis C621): N
- Minimum Inhibitory Concentrations (E. coli UB1005 C498): N
- Minimum Inhibitory Concentrations (S. pyogenes C721): N
- Minimum Inhibitory Concentrations (S. aureus ATCC25923 C622): N
- Minimum Inhibitory Concentrations [1]: N
- Minimum Inhibitory Concentrations [2]: N
- antibacterial activity against the organisms known to cause vascular access catheter-related infections [3]: did not have antibacterial activity

Compound: CC[C@@]1(O)C(=O)OCc2c1cc1n(c2=O)Cc2cc3ccccc3nc2-1 [camptothecin, Camptothecin]
- Minimum Inhibitory Concentrations (S. epidermidis C621): 10^−4 Molar
- Minimum Inhibitory Concentrations (E. coli UB1005 C498): N
- Minimum Inhibitory Concentrations (S. pyogenes C721): N
- Minimum Inhibitory Concentrations (S. aureus ATCC25923 C622): N
- Minimum Inhibitory Concentrations [1]: N
- Minimum Inhibitory Concentrations [2]: N
- antibacterial activity against the organisms known to cause vascular access catheter-related infections [3]: did not have antibacterial activity

Compound: COc1cccc2c1C(=O)c1c(O)c3c(c(O)c1C2=O)C[C@@](O)(C(=O)CO)C[C@@H]3O[C@H]1C[C@H](N)[C@H](O)[C@H](C)O1 [doxorubicin, Doxorubicin]
- Minimum Inhibitory Concentrations (S. epidermidis C621): 10^−6 Molar
- activity against Escheridia coli (E. coli UB1005 C498): have activity
- Minimum Inhibitory Concentrations (E. coli UB1005 C498): 10^−4 Molar
- Minimum Inhibitory Concentrations (S. pyogenes C721): 10^−7 Molar
- Minimum Inhibitory Concentrations (S. aureus ATCC25923 C622): 10^−5 Molar
- activity against Pseudomonas aeruginosa [1]: have activity
- Minimum Inhibitory Concentrations [1]: 10^−5 Molar
- Minimum Inhibitory Concentrations [2]: 10^−6 Molar

Compound: COc1cc([C@@H]2c3cc4c(cc3[C@@H](O[C@@H]3O[C@@H]5CO[C@@H](C)O[C@H]5[C@H](O)[C@H]3O)[C@H]3COC(=O)[C@H]23)OCO4)cc(OC)c1O [etoposide, Etoposide]
- Minimum Inhibitory Concentrations (S. epidermidis C621): 10^−6 Molar
- Minimum Inhibitory Concentrations (E. coli UB1005 C498): N
- Minimum Inhibitory Concentrations (S. pyogenes C721): 10^−5 Molar
- Minimum Inhibitory Concentrations (S. aureus ATCC25923 C622): 10^−5 Molar
- Minimum Inhibitory Concentrations [1]: N
- Minimum Inhibitory Concentrations [2]: 10^−5 Molar

Compound: NC(=O)NO [hydroxyurea]
- Minimum Inhibitory Concentrations (S. epidermidis C621): N
- Minimum Inhibitory Concentrations (E. coli UB1005 C498): N
- Minimum Inhibitory Concentrations (S. pyogenes C721): 10^−4 Molar
- Minimum Inhibitory Concentrations (S. aureus ATCC25923 C622): N
- activity against Pseudomonas aeruginosa [1]: some activity
- Minimum Inhibitory Concentrations [1]: 10^−4 Molar
- Minimum Inhibitory Concentrations [2]: N
- antibacterial activity against the organisms known to cause vascular access catheter-related infections [3]: did not have antibacterial activity

Compound: CN(Cc1cnc2nc(N)nc(N)c2n1)c1ccc(C(=O)N[C@@H](CCC(=O)O)C(=O)O)cc1 [methotrexate, Methotrexate]
- Minimum Inhibitory Concentrations (S. epidermidis C621): N
- Minimum Inhibitory Concentrations (E. coli UB1005 C498): N
- Minimum Inhibitory Concentrations (S. pyogenes C721): 10^−6 Molar
- Minimum Inhibitory Concentrations (S. aureus ATCC25923 C622): 10^−5 Molar
- Minimum Inhibitory Concentrations [1]: N
- activity against Klebsiella pneumoniae [2]: activity
- Minimum Inhibitory Concentrations [2]: 10^−6 Molar

Compound: O=C1c2c(O)ccc(O)c2C(=O)c2c(NCCNCCO)ccc(NCCNCCO)c21 [mitoxantrone, Mitoxantrone]
- Minimum Inhibitory Concentrations (S. epidermidis C621): 10^−5 Molar
- activity against Escheridia coli (E. coli UB1005 C498): have activity
- Minimum Inhibitory Concentrations (E. coli UB1005 C498): 10^−5 Molar
- Minimum Inhibitory Concentrations (S. pyogenes C721): 10^−6 Molar
- Minimum Inhibitory Concentrations (S. aureus ATCC25923 C622): 10^−5 Molar
- activity against Pseudomonas aeruginosa [1]: have activity
- Minimum Inhibitory Concentrations [1]: 10^−5 Molar
- Minimum Inhibitory Concentrations [2]: 10^−6 Molar

Compound: CC(=O)O[C@H]1C(=O)[C@@]2(C)[C@H]([C@H](OC(=O)c3ccccc3)[C@]3(O)C[C@H](OC(=O)[C@H](O)[C@@H](NC(=O)c4ccccc4)c4ccccc4)C(C)=C1C3(C)C)[C@]1(OC(C)=O)CO[C@@H]1C[C@@H]2O [paclitaxel]
- antibacterial activity against the organisms known to cause vascular access catheter-related infections [3]: did not have antibacterial activity

Compound: Nc1ncnc2c1ccn2[C@@H]1O[C@H](CO)[C@@H](O)[C@H]1O [tubercidin]
- Minimum Inhibitory Concentrations (S. epidermidis C621): N
- Minimum Inhibitory Concentrations (E. coli UB1005 C498): N
- Minimum Inhibitory Concentrations (S. pyogenes C721): N
- Minimum Inhibitory Concentrations (S. aureus ATCC25923 C622): N
- Minimum Inhibitory Concentrations [1]: N
- Minimum Inhibitory Concentrations [2]: N
- antibacterial activity against the organisms known to cause vascular access catheter-related infections [3]: did not have antibacterial activity

Compound: Cisplatin
- Minimum Inhibitory Concentrations (S. epidermidis C621): N
- Minimum Inhibitory Concentrations (E. coli UB1005 C498): N
- Minimum Inhibitory Concentrations (S. pyogenes C721): N
- Minimum Inhibitory Concentrations (S. aureus ATCC25923 C622): N
- activity against Pseudomonas aeruginosa [1]: some activity
- Minimum Inhibitory Concentrations [1]: 10^−4 Molar
- Minimum Inhibitory Concentrations [2]: N
- antibacterial activity against the organisms known to cause vascular access catheter-related infections [3]: did not have antibacterial activity
